According to US20080200563A1, “Use of Compounds Containing Thiol Groups as Efflux Pump Inhibitors” (ThioMatrix Forschungs- und Beratungs- GmbH, priority 2004, published 2008):

Target: T1, efflux pump P-glycoprotein (Cavia porcellus, UniProt H0VLE6)
T1 construct: The small intestine of guinea pigs was immediately removed after sacrificing animals, cut lengthwise and rinsed; from tissue; host or cells: guinea pig small intestinal mucosa mounted in Ussing chambers
Assay: Permeation studies with rhodamine 123 across guinea pig small intestinal mucosa in Ussing chambers (efflux pump inhibition)
Type: in vitro ADME
Details: 0.5% (m/v)
Description: The small intestine of guinea pigs was immediately removed after sacrificing animals, cut lengthwise and rinsed with sterile 0.9% sodium chloride solution. Thereafter it was mounted in Ussing chambers. The incubation medium was a 50 mM Bis-Tris (bis[2-hydroxyethyl]imino-tris[hydroxymethyl]methane) pH 6.0 buffer containing 250 mM NaCl, 2.6 mM MgSO4, 10 mM KCl, 40 mM glucose and 50 mM NaHCO3. […] J Pharm Sei. […] At predetermined time points samples were withdrawn from the acceptor chamber—facing to the basolateral site of the mucosa and replaced by fresh incubation medium. […] In addition all permeation studies described above were also performed with the mucosa being mounted in the opposite direction, so that the donor compartment is facing the basolateral site of the mucosa. In parallel, the same experiments were performed with the only difference that the donor- and acceptor compartment contained additionally glutathione in a concentration of 0.5%.
In order to compare the inhibitory effect of glutathione and/or polythiol-compounds with well-known inhibitors on efflux pumps of the gastrointestinal mucosa, they were tested in parallel.

T1 sequence (H0VLE6 1-1243): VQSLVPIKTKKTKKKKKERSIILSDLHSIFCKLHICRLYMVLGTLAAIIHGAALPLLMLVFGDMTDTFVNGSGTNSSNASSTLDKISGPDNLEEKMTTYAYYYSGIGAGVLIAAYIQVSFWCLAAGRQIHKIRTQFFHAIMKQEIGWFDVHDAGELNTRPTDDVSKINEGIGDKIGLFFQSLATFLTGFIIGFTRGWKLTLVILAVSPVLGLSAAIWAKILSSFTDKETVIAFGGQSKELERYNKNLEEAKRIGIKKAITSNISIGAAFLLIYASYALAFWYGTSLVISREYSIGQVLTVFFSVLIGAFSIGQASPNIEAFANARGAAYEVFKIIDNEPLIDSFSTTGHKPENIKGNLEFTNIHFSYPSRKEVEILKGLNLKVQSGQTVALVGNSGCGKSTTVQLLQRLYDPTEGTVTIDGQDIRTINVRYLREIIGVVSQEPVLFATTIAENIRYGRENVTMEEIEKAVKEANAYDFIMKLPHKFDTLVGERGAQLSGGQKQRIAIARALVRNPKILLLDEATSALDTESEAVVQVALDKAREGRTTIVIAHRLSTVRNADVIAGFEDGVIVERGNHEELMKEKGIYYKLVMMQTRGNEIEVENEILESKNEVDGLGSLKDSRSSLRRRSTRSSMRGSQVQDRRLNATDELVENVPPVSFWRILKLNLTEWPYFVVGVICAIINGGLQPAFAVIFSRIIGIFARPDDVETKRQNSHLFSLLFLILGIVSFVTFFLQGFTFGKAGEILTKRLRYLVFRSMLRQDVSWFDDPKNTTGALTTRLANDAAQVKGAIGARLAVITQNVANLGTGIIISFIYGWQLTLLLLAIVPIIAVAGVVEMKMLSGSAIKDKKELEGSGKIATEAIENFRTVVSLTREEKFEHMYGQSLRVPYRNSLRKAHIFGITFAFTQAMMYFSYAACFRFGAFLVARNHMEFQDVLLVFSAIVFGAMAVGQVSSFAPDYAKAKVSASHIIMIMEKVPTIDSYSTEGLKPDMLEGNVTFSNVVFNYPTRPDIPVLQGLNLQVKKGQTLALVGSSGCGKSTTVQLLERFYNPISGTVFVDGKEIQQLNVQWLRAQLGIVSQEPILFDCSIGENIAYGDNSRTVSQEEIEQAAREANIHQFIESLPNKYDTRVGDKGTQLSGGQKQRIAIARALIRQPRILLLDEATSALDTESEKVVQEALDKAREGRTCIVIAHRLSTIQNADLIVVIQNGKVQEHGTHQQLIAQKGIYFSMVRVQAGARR

N[C@@H](CCC(=O)N[C@@H](CS)C(=O)NCC(=O)O)C(=O)O [Glutathione, glutathione]
effect on rhodamine permeation at 4° C. compared with 37° C. (4° C.): dramatically lower effect
permeation of rhodamine in the absorptive direction in the presence of the compound (37° C., apical to basolateral): significantly improved
permeation of rhodamine in the secretory direction in the presence of the compound (37° C., basolateral to apical): significantly reduced
efflux pump inhibitory effect (37° C., p<0.05, rhodamine 123): statistically significant
